pKd: −log10 of the molar value.
Key:
S protein of HCoV-OC43 = S protein of HCoV-OC43 (Human coronavirus OC43, UniProt P36334); assay: SPR, Reichert4, CM5 chip, protein immobilised; assay type: binding
S protein of HCoV-229E = S protein of HCoV-229E (Human coronavirus 229E, UniProt P15423); assay: SPR, Reichert4, CM5 chip, protein immobilised; assay type: binding
S protein of HCoV-229E, sequence (P15423 16-1173): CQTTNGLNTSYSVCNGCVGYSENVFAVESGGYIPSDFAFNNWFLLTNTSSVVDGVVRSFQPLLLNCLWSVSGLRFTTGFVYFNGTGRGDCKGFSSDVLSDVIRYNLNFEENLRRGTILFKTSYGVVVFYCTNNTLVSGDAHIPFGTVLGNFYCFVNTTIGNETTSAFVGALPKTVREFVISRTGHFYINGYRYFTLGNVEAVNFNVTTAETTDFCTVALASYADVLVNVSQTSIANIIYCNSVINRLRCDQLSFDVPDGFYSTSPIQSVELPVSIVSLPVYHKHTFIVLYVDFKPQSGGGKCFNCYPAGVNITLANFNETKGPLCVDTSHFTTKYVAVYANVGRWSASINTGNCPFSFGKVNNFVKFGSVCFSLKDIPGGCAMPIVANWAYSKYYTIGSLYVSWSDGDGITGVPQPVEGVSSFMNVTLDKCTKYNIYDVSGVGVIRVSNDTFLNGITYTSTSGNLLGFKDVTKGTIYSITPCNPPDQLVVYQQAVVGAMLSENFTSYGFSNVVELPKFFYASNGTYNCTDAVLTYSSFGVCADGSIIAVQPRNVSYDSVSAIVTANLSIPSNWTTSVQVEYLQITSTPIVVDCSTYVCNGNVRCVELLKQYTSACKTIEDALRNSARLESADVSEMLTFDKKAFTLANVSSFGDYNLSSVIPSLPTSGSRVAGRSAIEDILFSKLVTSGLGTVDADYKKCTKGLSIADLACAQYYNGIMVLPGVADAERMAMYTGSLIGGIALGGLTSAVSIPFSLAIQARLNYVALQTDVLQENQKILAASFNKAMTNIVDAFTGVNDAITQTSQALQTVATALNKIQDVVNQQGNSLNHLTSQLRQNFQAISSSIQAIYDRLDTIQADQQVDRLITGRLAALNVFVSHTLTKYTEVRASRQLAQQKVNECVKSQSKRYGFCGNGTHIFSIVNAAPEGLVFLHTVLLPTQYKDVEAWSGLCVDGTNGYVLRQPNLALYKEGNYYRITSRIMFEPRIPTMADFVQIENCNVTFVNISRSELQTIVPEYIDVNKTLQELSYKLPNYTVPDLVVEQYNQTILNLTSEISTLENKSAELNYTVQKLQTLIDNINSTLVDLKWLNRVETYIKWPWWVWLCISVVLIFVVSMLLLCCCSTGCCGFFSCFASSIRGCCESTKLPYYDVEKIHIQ

S protein of HCoV-OC43, sequence (P36334 14-1353): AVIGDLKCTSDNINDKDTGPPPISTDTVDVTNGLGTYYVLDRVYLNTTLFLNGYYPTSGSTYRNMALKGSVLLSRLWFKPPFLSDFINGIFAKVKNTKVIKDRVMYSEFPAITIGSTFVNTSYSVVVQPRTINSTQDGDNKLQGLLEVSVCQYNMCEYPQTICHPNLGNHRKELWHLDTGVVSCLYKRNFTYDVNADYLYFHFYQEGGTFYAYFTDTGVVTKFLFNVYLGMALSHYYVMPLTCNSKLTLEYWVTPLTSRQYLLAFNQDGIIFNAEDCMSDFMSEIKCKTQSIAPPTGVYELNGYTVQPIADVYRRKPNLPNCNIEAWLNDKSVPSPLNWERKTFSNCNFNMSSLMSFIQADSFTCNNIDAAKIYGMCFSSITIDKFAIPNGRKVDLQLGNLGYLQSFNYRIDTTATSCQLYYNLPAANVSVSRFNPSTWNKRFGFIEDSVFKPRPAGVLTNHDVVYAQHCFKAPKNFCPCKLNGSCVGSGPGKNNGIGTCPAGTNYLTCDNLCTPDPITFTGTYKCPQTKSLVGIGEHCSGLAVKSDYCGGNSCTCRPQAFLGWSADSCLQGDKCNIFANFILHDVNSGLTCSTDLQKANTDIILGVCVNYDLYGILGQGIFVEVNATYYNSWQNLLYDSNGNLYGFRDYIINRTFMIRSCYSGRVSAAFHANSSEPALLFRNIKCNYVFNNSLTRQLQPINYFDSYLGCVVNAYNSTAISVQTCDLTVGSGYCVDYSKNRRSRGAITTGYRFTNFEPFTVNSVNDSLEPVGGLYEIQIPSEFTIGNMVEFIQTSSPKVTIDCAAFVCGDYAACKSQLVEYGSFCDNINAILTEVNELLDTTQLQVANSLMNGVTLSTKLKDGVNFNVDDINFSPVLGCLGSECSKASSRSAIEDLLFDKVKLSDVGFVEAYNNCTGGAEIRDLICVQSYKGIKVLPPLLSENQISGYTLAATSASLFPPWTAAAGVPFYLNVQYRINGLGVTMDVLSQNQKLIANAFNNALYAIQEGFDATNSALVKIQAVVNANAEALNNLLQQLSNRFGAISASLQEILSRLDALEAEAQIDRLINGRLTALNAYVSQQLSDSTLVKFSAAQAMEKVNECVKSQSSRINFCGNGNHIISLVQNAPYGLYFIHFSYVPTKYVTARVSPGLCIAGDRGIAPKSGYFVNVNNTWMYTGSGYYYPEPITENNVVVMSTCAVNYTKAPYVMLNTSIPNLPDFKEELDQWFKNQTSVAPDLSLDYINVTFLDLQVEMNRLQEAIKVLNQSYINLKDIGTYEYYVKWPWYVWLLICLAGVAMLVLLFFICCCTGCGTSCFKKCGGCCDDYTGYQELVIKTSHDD

## CC1(C)[C@@H](O[C@H]2O[C@H](C(=O)O)[C@@H](O)[C@H](O)[C@H]2O[C@@H]2O[C@H](C(=O)O)[C@@H](O)[C@H](O)[C@H]2O)CC[C@]2(C)[C@H]3C(=O)C=C4[C@@H]5C[C@@](C)(C(=O)O)CC[C@]5(C)CC[C@@]4(C)[C@]3(C)CC[C@@H]12 [Diammonium glycyrrhizinate]
S protein of HCoV-OC43
  pKd: 5.24
S protein of HCoV-229E
  pKd: 4.42

Source: article PMC12250084 (International Journal of Molecular Sciences, 2025)
